US9927437B2, “Treating neurodegenerative disease” (THE BRIGHAM AND WOMEN'S HOSPITAL, INC., priority 2013, dated 2018)
Entries after “also recorded” stand apart in the source; their conditions may differ.

Experiments:
EAE NOD mice = assay: EAE in NOD mice, progressive phase (clinical score, histopathology, body weight); format: in vivo
astrocytes = assay: mRNA expression in astrocytes isolated from EAE NOD mice (nCounter, qPCR); format: in vivo, mouse
Description: Mononuclear cells were isolated from the CNS as previously described^50 with minor modifications. Naïve and EAE mice were euthanatized, and then subjected to perfusion through the left ventricle with ice-cold sterile PBS. Brains and spinal cord were then removed, minced and enzymatically dissociated with 0.05% (w/v) collagenase type III (Worthington Biochemical), 0.5% Dispase II (Roche Applied Science), 40 μg/ml DNAse I, 20 mM HEPES in HBSS) for 30 min at 37 C to make a suspension of single cells. Enzymes were inactivated with 20 ml of Ca^2+/Mg^2+-free HBSS containing 2 mM EDTA and 20 mM HEPES. The digested tissue was triturated and passed through a […] cell strainer. Cells were centrifuged and resuspended in 30% isotonic Percoll (GE Healthcare) and 40 μg/ml DNAse I, underlined by 70% isotonic Percoll, and centrifuged at 1000×g at 4° C. for 25 min. Cells were collected from the 70%-30% interphase, and sorted by FACS Aria.
These purification procedures are based on previously described dissociation and purification protocols^50,51. Isolated CNS cells, were incubated with anti-Mouse CD16/CD32 for 15 min on ice to block the Fc receptors, and stained with fluorochrome-conjugated antibody for CD11b (M1/70), CD45(90), CD3 (145-2C11), CD4 (GK1.5), and Ly6C (HK1.4), and Biotion-conjugated GSL I—isolectin B4 (Vector labs), CD105 (N418), CD140a (APA5), CD11c (N418), F4/80 (BM8), O4 (O4, Miltenyi Biotec), and CD19 (eBio1D3), and un-conjugated antibodies recognizing mouse MOG (8-18C5, Millipore), O1 (O1), and Galactocerebroside (mGlaC, Millipore). All antibodies were from Ebioscience, unless otherwise mentioned (clone number, when relevant, in parentheses). Cells were washed and incubated PE-conjugated Streptavidin and R-Phycoerythrin AffiniPure F(ab′)2 fragment of Goat Anti-Mouse IgG+IgM (H+L) (Jackson ImmunoResearch laboratories) for 20 min at 4 C in the dark. Cells were washed, incubated with 7-AAD or Fixable Viability Dye eFluor® 450 (if cells were to be used for intracellular staining), for exclusion of dead cells (FIG. S3A), and sorted as following. Microglia were sorted as CD11b^+ cells with low CD45 expression and low Ly6C (CD11b+/CD45^low/Ly6C^low), while the inflammatory monocytes were considered as CD11b^+/Ly6C^high 52. T-cells were sorted as CD3^+CD4^+ cells. Astrocytes were isolated following the depletion of lymphocytes, microglia, monocytes (FIG. S3B), and oligodendrocytes, and lymphocytes (T-cells, B-cells, and NK cells) (FIG. S3C). […] We confirmed that we had isolated a relatively pure populations of astrocytes by qPCR for the astrocyte markers^44,51 gfap, aldh1l1 and aqp4, and found them to be exclusively expressed in the astrocyte fraction (in a similar expression pattern to that of GFP^+ astrocytes sorted from Tg(GFP-hGFAP) FVB transgenic mice^49) (FIG. S3E). We used an additional cohort of markers to explore for presence of immune cells [microglia/monocytes cells—itgam (CD11b), and emr1 (F4/80), dendritic cells—itgax (CD11c), NK cells—Klrb1c (Nk1.1), T-cells—cd3, and B-cells—cd19], oligodendrocytes (mog, mbp), and neurons (syt1, snap25) (FIG. S3F, G).
100-200 ng of total RNA was hybridized with reporter and capture probes for nCounter Gene Expression code sets (Mouse Inflammation Kit, or a custom made astrocyte-oriented probe set (Table S1)), according to manufacturer's instructions (NanoString Technologies). Data were normalized to spiked positive controls and housekeeping genes (nSolver Analysis system). Transcript counts less than the mean of the negative control transcripts plus 2 standard deviations for each sample were considered background.
Nanostring generated gene expression data were analyzed by use of the Expander 6.06 platform^53. Genes were clustered using the unbiased CLICK algorithm, and each cluster was further analyzed for enrichments in transcription factors binding sites (promoter analysis).

Q: For “shB4galt6: lentivirus-delivered shRNA against b4galt6 (TRCN0000334278; SEQ ID NO:3) (guide CGATGGACTGAACAATTTATTCTCGAGAATAAATTGTTCAGTCCACG)”, which EAE disease progression (EAE NOD mice; NOD EAE, i.c.v. 1×10^7 IU lentivirus at day 35) is on record?
A: suppressed disease progression; also recorded: ameliorates disease severity

Q: What about the “b4galt6 and b4galt5 expression in astrocytes” value (astrocytes; NOD EAE, i.c.v. lentivirus at day 35, qPCR) of the same compound?
A: astrocyte-specific knock-down

Q: What about the “csf2 expression in astrocytes” value (astrocytes; chronic NOD EAE, 10 days after i.c.v. shRNA lentivirus) of the same compound?
A: significant decrease

Q: What does the source list for `CCCCCCCCCC(=O)N[C@H](CN1CCOCC1)[C@H](O)c1ccccc1` [PDMP, D-threo-1-phenyl-2-decanoylamino-3-morpholino-1-propanol]?
A: disease progression, axonal loss (EAE NOD mice; NOD EAE, 20 mg/kg i.p. twice a day from day 40, lumbar spinal cord, Bielschowsky's silver stain): suppression of disease progression; disease progression, demyelination (EAE NOD mice; NOD EAE, 20 mg/kg i.p. twice a day from day 40, lumbar spinal cord, Luxol fast blue): suppression of disease progression; disease progression, clinical score (EAE NOD mice; NOD EAE, 20 mg/kg i.p. twice a day from day 40 after EAE induction): suppression of disease progression; expression of demyelination-associated genes in astrocytes (astrocytes; NOD EAE progressive phase): significant reduction; expression of remyelination-associated genes in astrocytes (astrocytes; NOD EAE progressive phase): increased expression; expression of representative cluster 2 genes (ccl2, ccl5, cxcl10, il1b, nos2, opn, H2-Aa, vim) in astrocytes (astrocytes; NOD EAE progressive phase (day 100), qPCR): suppressive effects; irf1 and relB expression in astrocytes (astrocytes; NOD EAE, qPCR): subsequent suppression

Q: With lactosylceramide [LacCer] as the compound, how does the “EAE disease clinical symptoms” value (EAE NOD mice; NOD mice, 10 μg per mouse i.p. every 3 days from day 35 after EAE induction) read?
A: significant worsening of disease clinical symptoms
